The target in data set [1] is T1, IKK (Homo sapiens, UniProt O14920+O15111).
T1 construct: host or cells: HeLa cells (inferred)
The data set can be described thus: IKK activation in stimulated cells (immune complex kinase assay). The class given is cell-based. As to conditions: FIG. 2D. Here is the method:
Luciferase gene reporter assay and Kinase assays of IKK: HeLa cells were transfected with the reporter plasmids described above using Lipofectin (GIBCO BRL). After 24-48 hr, the luciferase activity was determined using the Luciferase Assay System (Promega). The kinase activity of IKKα and IKKβ were analyzed by immune complex kinase assay as described previously (Oka, S., Kamata, H., Kamata, K., Yagisawa, H. and Hirata, H. (2000) FEBS Lett. 472, 196-202). The substrates was using GST-IκBα(1-55) or GST-p65(399-551).
In order to find out the mechanism of NF-κB suppression by cPrG-HCl, the effect on the signal transduction system, which functions upstream of NF-κB, was analyzed. First, the effect of cPrG-HCl on IKK activity was examined. […] Next, the effect of cPrG-HCl on phosphorylation and degradation of IκB was analyzed by Western blotting using anti-IκB antibody (FIG. 2E). In FIG. 2E, black arrows indicate IκBα and white arrows indicate phosphorylated IκBα. […] Namely, cPrG-HCl suppressed NF-κB activation without suppressing the steps up to IκB degradation. Accordingly, nuclear translocation of NF-κB was analyzed by Western blotting using p65 and p50 which are components of NF-κB (FIG. 2F). […] Further, the state of NF-κB activation in the nucleus was analyzed by EMSA (electrophoretic mobility shift assay) (FIG. 2G). In FIG. 2G, “n. s.” means nonspecific band.

Data set [2] deals with NF-κB. The data set can be described thus: NF-κB luciferase reporter assay in U373, 293, COS7 and MKN45 cells. The class given is cell-based, human; African green monkey. As to conditions: all the cells tested: U373, 293, COS7, MKN45; FIGS. 6A to 6F. As for the experimental part: In order to find out whether the suppression of NF-κB and AP-1 activation was specific to HeLa cells used above, analysis was made with various kind of cells. The cells used were U373 cells (human brain tumor cells), 293 cells (human embryo-derived kidney cells), COS7 cells (African green monkey kidney-derived cells), and MKN45 cells (human gastric tumor cells).
The NF-κB reporter plasmid pIG3Luc was incorporated into cells by transfection. After 24 hours, the cells were pretreated with cPrG-HCl at a specified concentration for 1 hour and then stimulated with TNFα (20 ng/ml) or PMA (1 μg/ml) for 4 hours, after which luciferase activity was measured. Each activity was corrected for the amount of protein.
(In general: Reporter assays use an easily measured gene product as a stand-in for the process of interest.)

For data set [3], the system named is NF-κB. The data set can be described thus: EMSA of NF-κB DNA binding activity in nuclear extract. The class given is cell-based. Here is the method:
Electrophoretic mobility shift assay (EMSA): Nuclear extracts were prepared by the method of Schreiber, et al (Schreiber, E., Matthias, P., Muller, M. M. and Schaffner, W. (1989) Nucleic Acids Res. 17, 6419). Briefly, cells were solubilized with a buffer (10 mM HEPES-NaOH, pH 7.9, 10 mM KCl, 0.1 mM EDTA, 0.1 mM EGTA, 0.4% NP-40, 0.5 mM PMSF, 1 μg/ml aprotinin, 1 μg/ml leupeptin, 1 μg/ml pepstatin, 1 mM DTT), and then centrifuged at 10,000 rpm for 15 min. The pellets were resuspended in a buffer (20 mM HEPES-NaOH, pH 7.9, 400 mM NaCl, 1 mM EDTA, 1 mM EGTA, 1 mM PMSF, 1 μg/ml aprotinin, 1 μg/ml leupeptin, 1 μg/ml pepstatin, 1 μg/ml chymostatin, 1 μg/ml antipain, 1 mM DTT), and then centrifuged at 15,000 rpm for 15 min. […] The samples were electrophoresed on an 8% polyacrylamide gel and analyzed by an Imaging plate (Fuji Film).
In order to find out the mechanism of NF-κB suppression by cPrG-HCl, the effect on the signal transduction system, which functions upstream of NF-κB, was analyzed. […] Next, the effect of cPrG-HCl on phosphorylation and degradation of IκB was analyzed by Western blotting using anti-IκB antibody (FIG. 2E). […] Accordingly, nuclear translocation of NF-κB was analyzed by Western blotting using p65 and p50 which are components of NF-κB (FIG. 2F). […] Further, the state of NF-κB activation in the nucleus was analyzed by EMSA (electrophoretic mobility shift assay) (FIG. 2G). […]
(In general: In EMSA bound probe runs differently from free probe, usually more slowly.)

Data set [4] deals with HeLa cells. The data set can be described thus: DNA fragmentation (apoptosis) in HeLa cells. The class given is cell-based. As to conditions: cPrG-HCl together with TNFα, FIG. 1A, hydrochloride. As for the experimental part:
(§1) Cell culture: HeLa cells were cultured in Dulbecco's modified Eagle's medium supplemented with 10% fetal bovine serum and 50 μg/ml kanamycin at 37° C. in 5% CO2 in air.
(§2) Assay for apoptotic processes: Cell viability was determined by dye exclusion assay using 0.1% trypan blue. DNA fragmentation was analyzed as described previously (Kawauchi, K. et al. (1997) Biochem. Biophys. Res. Commun. 237, 543-547). In the caspase-3 assay, cells were disrupted by freeze-thaw in an extraction buffer (50 mM Tris-HCl, pH7.4, 1 mM EGTA, 5 mM EDTA, 5 mM MgCl2, 1 mM APMSF, 10 μg/ml pepstatin, 10 μg/ml leupeptin, and 1 mM DTT). Then the suspension was centrifuged at 15,000 rpm for 20 min, and the supernatants obtained were incubated at 37° C. for 60 min in a reaction buffer (50 mM Tris-HCl, pH7.4, 1 mM EDTA, 10 mM EGTA) with 20 μM of the fluorogenic substrate DEVD-AFC (Peptide Institute, Inc., Japan). Cleavage of the substrates was quantified by measuring the fluorescence of 7-amino-4-trifluomethyl coumarin released using a spectrofluorometer (Shimadzu RF5000) with excitation at 380 mn and emission at 460 nm.
HeLa cells were treated with TNFα and cPrG.HCl and the effect of cPrG.HCl on apoptosis was examined by measuring DNA fragmentation and survivability.

Data set [5] addresses T1, IKK. As to conditions: earlier abstract of the inventors (Kamata et al., 2000); cited from earlier work.
The test system of data set [6] is NF-κB. The settings on record: earlier abstract of the inventors (Kamata et al., 2000); cited from earlier work.
Data set [7] has as its system HeLa cells. The data set can be described thus: Cell viability by trypan blue dye exclusion assay. The class given is cell-based. The settings on record: FIG. 1A. As for the experimental part: as §1, §2

The source of these data is patent US20040048791A1, “Method for treating neoplastic cells using cycloprodigiosin or salt thereof” (priority 2002, published 2004).

Each structure is given as a SMILES string. “Also recorded” adds a separate entry of the source. Structures can show the parent of a compound that is named as a salt.

T1 sequence (O15111 whole entry): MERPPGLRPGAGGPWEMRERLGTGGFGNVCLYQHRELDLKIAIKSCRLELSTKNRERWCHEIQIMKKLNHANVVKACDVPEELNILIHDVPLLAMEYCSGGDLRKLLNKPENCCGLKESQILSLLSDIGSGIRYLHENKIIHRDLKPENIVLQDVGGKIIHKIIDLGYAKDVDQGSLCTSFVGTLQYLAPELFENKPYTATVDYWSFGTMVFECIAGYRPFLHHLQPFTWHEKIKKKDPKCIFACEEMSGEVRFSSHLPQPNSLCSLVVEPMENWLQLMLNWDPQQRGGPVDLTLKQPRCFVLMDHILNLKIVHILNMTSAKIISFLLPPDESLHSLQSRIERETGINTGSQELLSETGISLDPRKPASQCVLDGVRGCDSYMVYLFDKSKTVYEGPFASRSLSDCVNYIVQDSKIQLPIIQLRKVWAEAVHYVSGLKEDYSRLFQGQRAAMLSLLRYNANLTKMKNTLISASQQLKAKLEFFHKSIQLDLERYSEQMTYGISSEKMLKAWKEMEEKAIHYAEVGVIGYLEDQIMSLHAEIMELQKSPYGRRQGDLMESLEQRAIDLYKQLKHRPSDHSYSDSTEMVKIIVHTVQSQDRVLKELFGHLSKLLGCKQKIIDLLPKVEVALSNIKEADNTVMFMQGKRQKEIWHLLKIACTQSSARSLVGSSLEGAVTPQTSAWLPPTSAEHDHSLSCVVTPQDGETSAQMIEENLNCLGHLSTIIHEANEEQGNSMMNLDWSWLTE
T1 sequence (O14920 whole entry): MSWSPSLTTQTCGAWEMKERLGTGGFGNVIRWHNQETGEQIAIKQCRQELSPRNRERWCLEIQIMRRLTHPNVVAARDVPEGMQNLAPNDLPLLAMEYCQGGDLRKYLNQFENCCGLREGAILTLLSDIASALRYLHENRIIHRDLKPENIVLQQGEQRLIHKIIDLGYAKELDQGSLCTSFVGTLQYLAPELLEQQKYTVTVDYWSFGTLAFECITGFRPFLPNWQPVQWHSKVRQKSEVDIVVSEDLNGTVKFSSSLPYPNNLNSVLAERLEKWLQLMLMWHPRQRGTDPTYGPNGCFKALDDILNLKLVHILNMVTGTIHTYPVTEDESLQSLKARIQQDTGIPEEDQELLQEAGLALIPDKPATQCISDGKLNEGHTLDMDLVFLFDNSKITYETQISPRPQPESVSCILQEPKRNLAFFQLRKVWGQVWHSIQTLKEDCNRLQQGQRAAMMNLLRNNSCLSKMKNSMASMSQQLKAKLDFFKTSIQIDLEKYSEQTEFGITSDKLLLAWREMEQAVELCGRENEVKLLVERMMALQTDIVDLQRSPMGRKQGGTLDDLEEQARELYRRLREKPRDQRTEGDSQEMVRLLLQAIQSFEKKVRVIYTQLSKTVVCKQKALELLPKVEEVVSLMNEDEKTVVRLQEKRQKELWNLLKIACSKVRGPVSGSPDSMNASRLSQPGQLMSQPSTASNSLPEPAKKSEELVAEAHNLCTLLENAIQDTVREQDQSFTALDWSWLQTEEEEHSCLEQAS
T1 sequence (Q9Y6K9 whole entry partner): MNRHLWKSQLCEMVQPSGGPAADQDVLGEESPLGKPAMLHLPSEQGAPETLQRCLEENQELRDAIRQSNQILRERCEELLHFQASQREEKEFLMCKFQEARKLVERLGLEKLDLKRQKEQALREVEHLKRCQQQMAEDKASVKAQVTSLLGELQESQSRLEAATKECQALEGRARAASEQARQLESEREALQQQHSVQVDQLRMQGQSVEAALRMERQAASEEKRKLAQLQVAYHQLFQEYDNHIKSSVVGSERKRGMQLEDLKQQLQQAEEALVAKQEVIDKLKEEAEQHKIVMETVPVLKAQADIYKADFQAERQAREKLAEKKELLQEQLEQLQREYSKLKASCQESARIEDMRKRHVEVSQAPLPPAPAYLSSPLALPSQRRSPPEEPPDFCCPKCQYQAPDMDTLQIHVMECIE

For the molecule `COC1=CC(c2ccc[nH]2)=N/C1=C\c1[nH]c(C)c2c1C(C)CCC2` (stereo not drawn) [cPrG-HCl, Cycloprodigiosin hydrochloride], the “TNFα-induced IKK activation” value at IKK [1] is reported as “did not suppressed”. Further, the NF-κB transcriptional activation result in the data set on NF-κB [2] is “suppressed”. In the data set on NF-κB [3] (PMA stimulation, FIG. 3B), the “DNA binding activation of NF-κB” value is given as “inhibited neither”. For the same molecule, in the data set with NF-κB [3] (TNFα stimulation, FIG. 2G), the “DNA binding activity of NF-κB” value was “did not suppress”. The DNA fragmentation result with HeLa cells [4] is “marked DNA fragmentation; also recorded: significant DNA fragmentation”. For the same molecule, the IKK activation entry on IKK [5] is “no suppressive effect”. The “gene expression induction by NF-κB” value in the data set with NF-κB [6] is on record as “significantly suppressed”. The cell viability result in the data set with HeLa cells [7] (cPrG-HCl present upon TNFα stimulation) is “about 65%”; with HeLa cells [7] (cPrG-HCl treatment alone), “slightly decreased”.
